Test results published in patent US20100137313A1 (ASTRAZENECA AB, priority 2008, published 2010).

target: S. pneumoniae Topoisomerase IV ATPase (ParE) (Streptococcus pneumoniae serotype 4, UniProt Q59961); experiment: S. pneumoniae Topoisomerase IV ATPase inhibition; assay type: biochemical; settings: values marked * are an average of two or more data points, read-out: % Inh (13 μM) of S. pneumoniae Topoisomerase IV ATPase
Outline: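 ParE ATPase (1.25 nM) run with 160 μM ATP and 5 μg/ml sheared salmon sperm DNA in Tris pH 8.0, Mg2+, glycerol, DTT, Brij-35. Phosphate released read by malachite green/molybdate absorbance at 650 nm. IC50 from 10 compound concentrations; DMSO (2%) as 0% and EDTA (20 μM) as 100% inhibition.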

S. pneumoniae Topoisomerase IV ATPase (ParE), sequence (Q59961 whole entry): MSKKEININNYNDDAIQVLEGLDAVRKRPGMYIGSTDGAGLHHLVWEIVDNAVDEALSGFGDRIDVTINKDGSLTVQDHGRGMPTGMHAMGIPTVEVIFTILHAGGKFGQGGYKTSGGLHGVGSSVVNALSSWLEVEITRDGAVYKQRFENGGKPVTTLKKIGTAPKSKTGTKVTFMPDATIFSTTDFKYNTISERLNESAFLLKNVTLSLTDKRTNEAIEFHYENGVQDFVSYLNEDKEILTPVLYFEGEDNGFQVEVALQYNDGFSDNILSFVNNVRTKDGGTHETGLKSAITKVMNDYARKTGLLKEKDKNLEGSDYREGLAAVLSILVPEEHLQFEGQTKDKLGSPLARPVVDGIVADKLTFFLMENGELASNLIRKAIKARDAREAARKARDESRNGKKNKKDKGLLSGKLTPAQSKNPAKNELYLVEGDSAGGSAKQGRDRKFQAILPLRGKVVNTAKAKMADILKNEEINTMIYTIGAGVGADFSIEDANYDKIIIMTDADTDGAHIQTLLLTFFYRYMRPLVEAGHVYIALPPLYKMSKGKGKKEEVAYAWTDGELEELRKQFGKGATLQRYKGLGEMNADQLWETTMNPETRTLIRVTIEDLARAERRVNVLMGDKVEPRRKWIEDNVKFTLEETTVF

Structure (SMILES)	inhibition at 13 µM [%]
O=C(O)c1cncc(-c2cnc(Nc3ccc(F)c(Cl)c3)nc2-n2ccnn2)c1 [Example 329, 5-{2-[(3-chloro-4-fluorophenyl)amino]-4-(1H-1,2,3-triazol-1-yl)pyrimidin-5-yl}pyridine-3-carboxylic acid]	116
O=C(O)/C=C/c1cccc(-c2cnc(Nc3ccc(F)c(Cl)c3)nc2-n2cnc(Cl)c2Cl)c1 [Example 331, (2E)-3-(3-{2-[(3-chloro-4-fluorophenyl)amino]-4-(4,5-dichloro-1H-imidazol-1-yl)pyrimidin-5-yl}phenyl)prop-2-enoic acid]	59.8
O=C(O)/C=C/c1cccc(-c2cnc(Nc3ccc(F)c(Cl)c3)nc2-n2cnc(C(F)(F)F)c2)c1 [Example 332, (2E)-3-(3-{2-[(3-chloro-4-fluorophenyl)amino]-4-[4-(trifluoromethyl)-1H-imidazol-1-yl]pyrimidin-5-yl}phenyl)prop-2-enoic acid]	62.1
O=C(O)/C=C/c1cccc(-c2cnc(Nc3ccc(F)c(Cl)c3)nc2-n2ccnn2)c1 [Example 333, (2E)-3-(3-{2-[(3-chloro-4-fluorophenyl)amino]-4-(1H-1,2,3-triazol-1-yl)pyrimidin-5-yl}phenyl)prop-2-enoic acid]	69.8
O=C(O)/C=C/c1cccc(-c2cnc(Nc3ccc(F)c(Cl)c3)nc2-n2nc3cccnc3n2)c1 [Example 334, (2E)-3-(3-{2-[(3-chloro-4-fluorophenyl)amino]-4-(2H-[1,2,3]triazolo[4,5-b]pyridin-2-yl)pyrimidin-5-yl}phenyl)prop-2-enoic acid]	104
CN(C)CCCNc1nc(Nc2ccc(F)c(F)c2)ncc1-c1ccc(C(=O)O)s1 [Example 335, 5-(2-(3,4-difluorophenylamino)-4-(3-(dimethylamino)propylamino)pyrimidin-5-yl)thiophene-2-carboxylic acid]	76.5
CN(C)CCCNc1nc(Nc2ccc(F)c(F)c2)ncc1-c1cccc(/C=C/C(=O)O)c1 [Example 336, (E)-3-(3-(2-(3,4-difluorophenylamino)-4-(3-(dimethylamino)propylamino)pyrimidin-5-yl)phenyl)acrylic acid]	83.7
Cc1ccc(Nc2ncc(-c3ccc(C(=O)O)s3)c(NCCCN(C)C)n2)cc1C#N [Example 337, 5-(2-(3-cyano-4-methylphenylamino)-4-(3-(dimethylamino)propylamino)pyrimidin-5-yl) thiophene-2-carboxylic acid]	64.4
Cc1ccc(Nc2ncc(-c3cccc(/C=C/C(=O)O)c3)c(NCCCN(C)C)n2)cc1C#N [Example 338, (E)-3-(3-(2-(3-cyano-4-methylphenylamino)-4-(3-(dimethylamino)propylamino)pyrimidin-5-yl)phenyl)acrylic acid]	58.4
CN(C)CCCNc1nc(Nc2cc(Cl)cc(Cl)c2)ncc1-c1ccc(C(=O)O)s1 [Example 339, 5-(2-(3,5-dichloro-phenylamino)-4-(3-(dimethylamino)propylamino)pyrimidin-5-yl) thiophene-2-carboxylic acid]	84.3
CN(C)CCCNc1nc(Nc2cc(Cl)cc(Cl)c2)ncc1-c1cccc(/C=C/C(=O)O)c1 [Example 340, (E)-3-(3-(2-(3,5-dichlorophenylamino)-4-(3-(dimethylamino)propylamino)pyrimidin-5-yl)phenyl)acrylic acid]	83.3
CN(C)CCCNc1nc(Nc2cc(C(F)(F)F)cc(C(F)(F)F)c2)ncc1-c1ccc(C(=O)O)s1 [Example 341, 5-(2-(3,5-bis(trifluoromethyl)phenylamino)-4-(3-(dimethylamino)propylamino)pyrimidin-5-yl) thiophene-2-carboxylic acid]	87.2
COc1cc(Cl)c(C)cc1Nc1ncc(-c2ccc(C(=O)O)s2)c(NCCCN(C)C)n1 [Example 342, 5-(2-(4-chloro-2-methoxy-5-methylphenylamino)-4-(3-(dimethylamino)propylamino)pyrimidin-5-yl) thiophene-2-carboxylic acid]	77
CCOC(=O)/C=C/c1cccc(-c2cnc(Nc3cc(C)c(Cl)cc3OC)nc2NCCCN(C)C)c1 [Example 343, (E)-ethyl 3-(3-(2-(4-chloro-2-methoxy-5-methylphenylamino)-4-(3-(dimethylamino)propylamino)pyrimidin-5-yl)phenyl)acrylate]	-22.3
COc1cc(Nc2ncc(-c3cncnc3)c(NCCCN(C)C)n2)cc(OC)c1 [Example 344, N^2-(3,5-dimethoxyphenyl)-N^4-(3-(dimethylamino)propyl)-5,5′-bi pyrimidin-2,4-diamine]	82
COc1cc(Nc2ncc(-c3ccc(C(=O)O)s3)c(NCCCN(C)C)n2)cc(OC)c1 [Example 345, 5-(2-(3,5-dimethoxy-phenylamino)-4-(3-(dimethylamino)propyamino)pyrimidin-5-yl) thiophene-2-carboxylic acid]	82.7
COc1cc(Nc2ncc(-c3ccc(C(=O)O)s3)c(NCCCN(C)C)n2)cc(C(F)(F)F)c1 [Example 346, 5-{4-[3-(dimethylamino)propylamino]-2-[3-methoxy-5-(trifluoromethyl)phenylamino]pyrimidin-5-yl}thiophene-2-carboxylic acid]	79.5
COc1cc(Nc2ncc(-c3ccc(C(=O)O)s3)c(NCCCN(C)C)n2)c(OC)cc1Cl [Example 347, 5-(2-(4-chloro-2,5-dimethoxyphenyl-amino)-4-(3-(dimethylamino)propylamino)pyrimidin-5-yl)thiophene-2-carboxylic acid]	42.2
COc1cc(Nc2ncc(-c3cccc(/C=C/C(=O)O)c3)c(N3CC(C)OC(C)C3)n2)cc(C(F)(F)F)c1 (stereo not shown) [Example 348, (E)-3-(3-(4-(2,6-dimethylmorpholino)-2-(3-methoxy-5-(trifluoromethyl)phenylamino)pyrimidin-5-yl)phenyl) acrylic acid]	85.7
COc1cc(Nc2ncc(-c3cnc(OC)nc3)c(N3CC(C)OC(C)C3)n2)cc(C(F)(F)F)c1 (stereo not shown) [Example 349, 4-(2,6-dimethylmorpholino)-2′-methoxy-N-(3-methoxy-5-(trifluoromethyl)phenyl)-5,5′-bipyrimidin-2-amine]	83.6
O=C(O)/C=C/c1cccc(-c2cnc(Nc3ccc(F)c(F)c3)nc2N2CCOCC2)c1 [Example 350, (E)-3-(3-(2-(3,4-difluorophenylamino)-4-morpholinopyrimidin-5-yl)phenyl)acrylic acid]	69
COc1cc(Nc2ncc(-c3cccc(/C=C/C(=O)O)c3)c(N3CCOCC3)n2)cc(OC)c1 [Example 351, (E)-3-(3-(2-(3,5-dimethoxyphenylamino)-4-morpholinopyrimidin-5-yl)phenyl) acrylic acid]	82.8
Fc1ccc(Nc2ncc(-c3cncnc3)c(N3CCOCC3)n2)cc1F [Example 352]	26.7
COc1cc(Nc2ncc(-c3cccc(/C=C/C(=O)O)c3)c(NCCc3ccncc3)n2)cc(OC)c1 [Example 353, (E)-3-(3-(2-(3,5-dimethoxyphenyl-amino)-4-(2-(pyridin-4-yl)ethylamino)pyrimidin-5-yl)phenyl) acrylic acid]	83.9
COc1cc(Nc2ncc(-c3cncnc3)c(NCCc3ccncc3)n2)cc(OC)c1 [Example 354, N^2-(3,5-dimethoxyphenyl)-N^4-(2-(pyridin-4-yl)ethyl)-5,5′-bipyrimidine-2,4-diamine]	80.5
